Measured values published in ChEMBL document CHEMBL4251748, “Discovery of Cytochrome P450 4F11 Activated Inhibitors of Stearoyl Coenzyme A Desaturase” (J Med Chem, 2018).

What was measured:
NCI-H1155 [1] = assay: Cytotoxicity against human NCI-H1155 cells incubated for 4 days in presence of sodium oleate; assay type: functional, cell-based; settings: NCI-H1155, 96 h
NCI-H1155 [2] = assay: Cytotoxicity against human NCI-H1155 cells expressing CYP4F11 incubated for 4 days in presence of sodium oleate; assay type: functional, cell-based; settings: NCI-H1155, 96 h
NCI-H1155 [3] = assay: Cytotoxicity against human NCI-H1155 cells expressing CYP4F11 incubated for 4 days; assay type: functional, cell-based; settings: NCI-H1155, 96 h
NCI-H2122 [4] = assay: Cytotoxicity against human NCI-H2122 cells incubated for 4 days; assay type: functional, cell-based; settings: NCI-H2122, 96 h
[5] = Half life in mouse liver S9 fraction by LC-MS/MS analysis; assay type: ADME, subcellular
NCI-H1155 [6] = assay: Cytotoxicity against human NCI-H1155 cells expressing pLVX empty vector incubated for 4 days; assay type: functional, cell-based; settings: NCI-H1155, 96 h
[7] = Drug level in human NCI-H1155 cells after 4 hrs by LC-MS/MS analysis; assay type: ADME, cell-based; settings: nci-h1155, 4 h
[8] = Half life in human NCI-H1155 cells at 500 nM by LC-MS/MS analysis; assay type: ADME, cell-based
CYP4F11 = target: T1, CYP4F11 (Homo sapiens, UniProt Q9HBI6); assay: Drug metabolism in human NCI-H1155 cells assessed as CYP4F11-meidated O-demethylation by measuring half life at 500 nM by LC-MS/MS analysis; assay type: ADME, cell-based
T1 sequence (Q9HBI6 whole entry): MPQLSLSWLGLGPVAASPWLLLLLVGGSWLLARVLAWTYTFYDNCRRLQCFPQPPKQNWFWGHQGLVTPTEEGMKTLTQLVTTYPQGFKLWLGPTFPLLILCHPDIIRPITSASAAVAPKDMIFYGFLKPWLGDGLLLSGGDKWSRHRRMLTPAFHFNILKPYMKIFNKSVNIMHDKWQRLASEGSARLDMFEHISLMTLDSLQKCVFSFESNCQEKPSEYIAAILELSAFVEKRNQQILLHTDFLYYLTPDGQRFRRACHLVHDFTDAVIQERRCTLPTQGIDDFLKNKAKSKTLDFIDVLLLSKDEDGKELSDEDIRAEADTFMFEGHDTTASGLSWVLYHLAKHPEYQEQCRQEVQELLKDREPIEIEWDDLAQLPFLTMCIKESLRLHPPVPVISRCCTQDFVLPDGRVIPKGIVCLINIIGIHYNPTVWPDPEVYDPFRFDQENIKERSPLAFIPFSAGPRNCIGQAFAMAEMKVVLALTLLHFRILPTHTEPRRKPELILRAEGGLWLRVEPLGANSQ

NCI-H1155 [9] = assay: Ratio of EC50 for cytotoxicity against human NCI-H1155 cells expressing CYP4F11 incubated for 4 days in presence of sodium oleate to EC50 for cytotoxicity against human NCI-H1155 cells expressing CYP4F11 incubated for 4 days in absence of sodium oleate; assay type: functional
[10] = target: T2, Acyl-CoA desaturase 1 (Mus musculus) (UniProt P13516); assay: Inhibition of SCD1 in CD1 mouse liver at 100 nM using stearoyl [9,10-3H] CoA as substrate and NADPH incubated for 2 hrs by scintillation counting method
T2 sequence (whole entry): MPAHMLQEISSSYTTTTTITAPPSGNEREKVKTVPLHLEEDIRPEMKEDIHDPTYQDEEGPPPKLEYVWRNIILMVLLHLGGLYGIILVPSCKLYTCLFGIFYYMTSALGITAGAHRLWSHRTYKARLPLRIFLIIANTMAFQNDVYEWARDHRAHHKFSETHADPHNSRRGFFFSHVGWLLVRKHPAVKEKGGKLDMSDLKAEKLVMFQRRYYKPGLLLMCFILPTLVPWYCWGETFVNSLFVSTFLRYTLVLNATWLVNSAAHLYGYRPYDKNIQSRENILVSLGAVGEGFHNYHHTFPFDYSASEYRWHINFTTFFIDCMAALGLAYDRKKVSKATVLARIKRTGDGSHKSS

[11] = target: T2, Acyl-CoA desaturase 1 (Mus musculus); assay: Inhibition of SCD1 in CD1 mouse liver at 3 uM using stearoyl [9,10-3H] CoA as substrate and NADPH incubated for 2 hrs by scintillation counting method
NCI-H1993 = assay: Cytotoxicity against human NCI-H1993 cells; assay type: functional, cell-based
HCC95 [12] = assay: Cytotoxicity against human HCC95 cells at > 50 uM relative to control; assay type: functional
HCC44 [13] = assay: Cytotoxicity against human HCC44 cells at > 50 uM relative to control; assay type: functional
HCC95 [14] = assay: Cytotoxicity against human HCC95 cells; assay type: functional, cell-based
NCI-H2009 = assay: Cytotoxicity against human NCI-H2009 cells; assay type: functional, cell-based
NCI-H2122 [15] = assay: Cytotoxicity against human NCI-H2122 cells at > 50 uM relative to control; assay type: functional
HCC4017 = assay: Cytotoxicity against human HCC4017 cells; assay type: functional, cell-based
NCI-H2122 [16] = assay: Cytotoxicity against human NCI-H2122 cells; assay type: functional, cell-based
NCI-H460 [17] = assay: Cytotoxicity against human NCI-H460 cells; assay type: functional, cell-based
HCC44 [18] = assay: Cytotoxicity against human HCC44 cells; assay type: functional, cell-based
NCI-H1155 [19] = assay: Cytotoxicity against human NCI-H1155 cells; assay type: functional, cell-based
NCI-H1395 = assay: Cytotoxicity against human NCI-H1395 cells; assay type: functional, cell-based
NCI-H460 [20] = assay: Cytotoxicity against human NCI-H460 cells at > 50 uM relative to control; assay type: functional
[21] = Cytotoxicity against human HCC366 cells; assay type: functional, cell-based
[22] = Cytotoxicity against human NCI-H2073 cells; assay type: functional, cell-based
[23] = Cytotoxicity against human NCI-H1819 cells; assay type: functional, cell-based

| SMILES | EC50 (NCI-H1155 [1]) [µM] | EC50 (NCI-H1155 [2]) [µM] | EC50 (NCI-H1155 [3]) [nM] | EC50 (NCI-H2122 [4]) [µM] | EC50 (NCI-H1155 [6]) [µM] | also measured |
| --- | --- | --- | --- | --- | --- | --- |
| O=C(NCCc1ccc(O)cc1)C(=O)Nc1ccc(Cl)cc1 | 37 | 21 | 370 | 0.26 | 0.39 | half-life [5]: 71 min |
| COc1ccc(CNC(=O)C(=O)Nc2ccc(Cl)cc2)cc1 | – | – | – | – | – | Drug uptake [7]: 340 nM; half-life at 0.5 µM [8]: > 2880 min |
| COc1ccc(CCNC(=O)NC(=O)c2ccc(COc3ccccc3)cc2)cc1 | > 50 | 3.6 | 34 | 0.01 | > 50 | half-life at 0.5 µM (CYP4F11): 450 min; Ratio EC50 (NCI-H1155 [9]): 100; half-life [5]: 158 min; Drug uptake [7]: 1670 nM; half-life at 0.5 µM [8]: > 2880 min |
| CC(Cc1ccc(O)cc1)NC(=O)C(=O)Nc1ccc(Cl)cc1 (stereo not drawn) | 10 | 13 | 11200 | 5.1 | 11.7 | inhibition [10]: 24% |
| COc1ccc(CCNC(=O)c2ccc3ccccc3n2)cc1 | > 50 | > 50 | > 50000 | > 50 | > 50 | – |
| O=C(NCCc1ccc(O)cc1)C(=O)NC1CC1 | > 50 | > 50 | > 50000 | > 50 | > 50 | inhibition [10]: 0% |
| C#CCOc1ccc(C(=O)c2ccc(NC(=O)C(=O)NCCc3ccc(O)cc3)cc2)cc1 | > 50 | > 50 | 210 | 0.058 | 0.008 | inhibition [11]: > 98%; half-life [5]: 13 min |
| COc1ccc(C(C)CNC(=O)C(=O)Nc2ccc(Cl)cc2)cc1 (stereo not drawn) | > 50 | > 50 | > 50000 | 3.66 | > 50 | – |
| O=C(NCCc1ccc(O)cc1)NC(=O)c1ccc(COc2ccccc2)cc1 | 12 | 6.4 | 51 | 0.011 | 0.007 | inhibition [10]: 96%; half-life [5]: > 240 min |
| COc1ccc(CCNC(=O)C(=O)Nc2ccc(Cl)cc2)cc1 | > 50 | > 50 | 670 | 0.22 | 36 | EC50 (NCI-H1993): > 10 µM; Activity (HCC95 [12]): >95%; Activity (HCC44 [13]): >95%; EC50 (HCC95 [14]): < 1000 nM; EC50 (NCI-H2009): > 10 µM; Activity (NCI-H2122 [15]): >95%; EC50 (HCC4017): > 10 µM; EC50 (NCI-H2122 [16]): < 1000 nM; EC50 (NCI-H460 [17]): < 1000 nM; EC50 (HCC44 [18]): < 1000 nM; EC50 (NCI-H1155 [19]): > 10 µM; EC50 (NCI-H1395): > 10 µM; Activity (NCI-H460 [20]): >95%; EC50 [21]: > 10 µM; EC50 [22]: > 10 µM; half-life [5]: 7 min; EC50 [23]: > 10 µM |
| COc1ccc(CCNC(=O)C(=O)NC2CC2)cc1 | > 50 | > 50 | > 50000 | > 50 | > 50 | half-life at 0.5 µM (CYP4F11): 282 min; Drug uptake [7]: 80 nM; half-life at 0.5 µM [8]: > 2880 min |
| COc1ccc(CC(C)NC(=O)C(=O)Nc2ccc(Cl)cc2)cc1 (stereo not drawn) | 12 | 7.6 | 16400 | 3.53 | 9.5 | – |
| C#CCOc1ccc(C(=O)c2ccc(NC(=O)C(=O)NCCc3ccc(OC)cc3)cc2)cc1 | 16 | > 50 | 120 | 0.028 | 8.5 | half-life at 0.5 µM (CYP4F11): 1680 min; Drug uptake [7]: 870 nM; half-life at 0.5 µM [8]: > 2880 min |
| COc1ccc(CCNC(=O)CNc2ccc(Cl)cc2)cc1 | – | – | – | > 50 | – | – |
| Cc1ccccc1C(=O)c1ccc(C(=O)NC(=O)NCCc2ccc(O)cc2)cc1 | – | – | – | 1.5 | – | inhibition [10]: 57% |
| COc1ccc(CCNC(=O)c2nc3ccccc3o2)cc1 | – | – | – | 30 | – | – |
| COc1ccc(CCNC(=O)NC(=O)c2ccc(Br)cc2)cc1 | – | – | – | 0.16 | – | – |

| SMILES | EC50 (NCI-H1155 [1]) [µM] | EC50 (NCI-H1155 [2]) [µM] | EC50 (NCI-H1155 [3]) [nM] | EC50 (NCI-H2122 [4]) [µM] | EC50 (NCI-H1155 [6]) [µM] | also measured |
| --- | --- | --- | --- | --- | --- | --- |
| COc1ccc(CCNC(=O)C(=O)NC2CCC2)cc1 | – | – | – | > 50 | – | – |
| COc1ccc(CCNC(=O)C(=O)Nc2ccccc2)cc1 | – | – | – | 0.46 | – | – |
| COc1ccc(CCNC(=O)C(=O)Nc2ccc(C)c(F)c2)cc1 | – | – | – | 0.31 | – | – |
| COc1ccc(CCNC(=O)C(=O)Nc2ccc(C(=O)c3ccc(O)cc3)cc2)cc1 | – | – | – | > 50 | – | – |
| COc1ccc(CCCCNC(=O)c2ccc(Cl)cc2)cc1 | – | – | – | 3.27 | – | – |
| COc1ccc(CCNC(=O)C(=O)Nc2ccc(C(=O)c3ccc(OC)cc3)cc2)cc1 | – | – | – | 0.081 | – | – |
| COc1ccc(CCNC(=O)c2ccc(Cl)cc2)cc1 | – | – | – | > 50 | – | – |
| COc1ccc(CCNC(=O)NC(=O)c2ccc(Oc3ccccc3)cc2)cc1 | – | – | – | 0.031 | – | – |
| COc1ccc(CCNC(=O)c2cnc3ccccc3n2)cc1 | – | – | – | > 50 | – | – |
| CC(CNC(=O)C(=O)Nc1ccc(Cl)cc1)c1ccc(O)cc1 (stereo not drawn) | > 50 | > 50 | > 50000 | 4 | > 50 | inhibition [10]: 28% |
| O=C(NCCc1ccc(O)cc1)c1ccc2ccccc2n1 | 46 | 35 | 17000 | > 50 | 18 | inhibition [10]: 31% |
| COc1ccc(CCNC(=O)C(=O)Nc2cc(Cl)cc(Cl)c2)cc1 | – | – | – | > 50 | – | – |
| COc1ccc(CCNC(=O)C(=O)Nc2ccncc2)cc1 | – | – | – | > 50 | – | – |
| COc1ccc(CCNC(=O)COc2ccc(Cl)cc2)cc1 | – | – | – | > 50 | – | – |
| COc1ccccc1CCNC(=O)C(=O)Nc1ccc(Cl)cc1 | – | – | – | > 50 | – | – |
| COc1ccc(CCNC(=O)C(=O)O)cc1 | – | – | – | > 50 | – | – |
